Assay results taken from DBAASP.
Converted amounts (≈) assume the structure as drawn. Each block holds one molecule with its values, some of them ahead of it.

Key:
Test in all cases: ≥ marks a high value that may be exact or a test limit, other limits are often not marked, values filed in µg/mL are converted to µM
[1] = system: Staphylococcus aureus ATCC 43300
[2] = system: Acinetobacter baumannii ATCC 19606
[3] = system: Escherichia coli ATCC 25922
[4] = system: Staphylococcus aureus ATCC 25923
[5] = system: Staphylococcus aureus CUN 3792-99
[6] = system: Pseudomonas aeruginosa ATCC 27853
[7] = system: Pseudomonas aeruginosa CUN 4158-02
[8] = system: Stenotrophomonas maltophilia CUN 3998-00
[9] = system: Bordetella bronchiseptica CUN 11844-99
[10] = system: Streptococcus gordonii Challis DL1
Streptococcus mutans = system: Streptococcus mutans
[11] = system: Lacticaseibacillus casei ATCC 4646
[12] = system: Streptococcus mitis ATCC 903
[13] = system: Streptococcus sanguinis NY101
[14] = system: Veillonella atypica PK1910
Escherichia coli = system: Escherichia coli
[15] = system: Escherichia coli IFO 12734
Streptococcus uberis = system: Streptococcus uberis
Bacillus cereus = system: Bacillus cereus
Leuconostoc lactis = system: Leuconostoc lactis
Micrococcus luteus = system: Micrococcus luteus
[16] = system: Bacillus subtilis IFO 3134
[17] = system: Staphylococcus epidermidis
Pasteurella multocida = system: Pasteurella multocida
Listeria innocua = system: Listeria innocua
[18] = system: Staphylococcus aureus IFO 12732
[19] = system: Pseudomonas aeruginosa IFO 12582
Enterococcus faecalis = system: Enterococcus faecalis
Staphylococcus aureus = system: Staphylococcus aureus
Bacillus subtilis = system: Bacillus subtilis
Candida albicans = system: Candida albicans
Cryptococcus neoformans = system: Cryptococcus neoformans
Salmonella typhimurium = system: Salmonella typhimurium
Streptococcus pneumoniae = system: Streptococcus pneumoniae
Saccharomyces cerevisiae = system: Saccharomyces cerevisiae
Serratia marcescens = system: Serratia marcescens
Pseudomonas putida = system: Pseudomonas putida

Structure (SMILES): CC(C)C[C@H](NC(=O)[C@H](Cc1c[nH]c2ccccc12)NC(=O)[C@H](CC(C)C)NC(=O)[C@H](CCCCN)NC(=O)[C@H](CCC(N)=O)NC(=O)[C@H](CCCCN)NC(=O)[C@H](CS)NC(=O)[C@H](CCCCN)NC(=O)[C@H](CC(C)C)NC(=O)[C@H](CCCCN)NC(=O)[C@H](Cc1ccccc1)NC(=O)[C@H](CCCNC(=N)N)NC(=O)[C@H](CCCNC(=N)N)NC(=O)[C@H](Cc1ccccc1)NC(=O)[C@H](CCCCN)NC(=O)[C@H](CCCCN)NC(=O)[C@H](CS)NC(=O)CN)C(=O)N[C@@H](Cc1c[nH]c2ccccc12)C(=O)N[C@@H](CS)C(=O)NCC(=O)O [GCKKFRRFKLKCKQKLWLWCG]
MIC [1]: 24.1 µM (≈ 64 µg/mL) | MIC [2]: 24.1 µM (≈ 64 µg/mL) | MIC [3]: 385 µM (≈ 1020 µg/mL) | MIC [4]: 385 µM (≈ 1020 µg/mL) | MIC [5]: 12 µM (≈ 32 µg/mL) | MIC [6]: 96.3 µM (≈ 256 µg/mL) | MIC [7]: ≥ 96.3 µM | MIC [8]: ≥ 385 µM | MIC [9]: 6.02 µM (≈ 16 µg/mL)

Structure (SMILES): NCCCC[C@H](NC(=O)[C@H](Cc1c[nH]c2ccccc12)NC(=O)[C@H](Cc1ccccc1)NC(=O)[C@H](CCCCN)NC(=O)[C@H](CCCCN)NC(=O)[C@@H](N)Cc1ccccc1)C(=O)N[C@@H](Cc1c[nH]c2ccccc12)C(=O)N[C@@H](Cc1ccccc1)C(=O)N[C@@H](CCCN=C(N)N)C(=O)N[C@@H](CCCN=C(N)N)C(=O)N[C@@H](Cc1ccccc1)C(=O)NCC(=O)NCC(=O)NCC(=O)N[C@@H](CCCN=C(N)N)C(=O)N[C@@H](Cc1c[nH]c2ccccc12)C(=O)N[C@@H](CCCN=C(N)N)C(=O)N[C@@H](Cc1c[nH]c2ccccc12)C(=O)N[C@@H](CCCN=C(N)N)C(=O)N[C@@H](Cc1c[nH]c2ccccc12)C(=O)N[C@@H](Cc1ccccc1)C(N)=O [FKKFWKWFRRFGGGRWRWRWF]
MIC [10]: 10.6 µM (≈ 32 µg/mL) | MIC (Streptococcus mutans): 2.65 µM (≈ 8 µg/mL) | MIC [11]: 2.65 µM (≈ 8 µg/mL) | MIC [12]: 21.2 µM (≈ 64 µg/mL) | MIC [13]: 5.3 µM (≈ 16 µg/mL) | MIC [14]: 2.65 µM (≈ 8 µg/mL)

Structure (SMILES): CC[C@H](C)[C@H](NC(=O)[C@H](C)NC(=O)[C@@H]1CCCN1C(=O)[C@@H](NC(=O)[C@@H](NC(=O)[C@H](Cc1cnc[nH]1)NC(=O)[C@H](C)NC(=O)[C@H](C)NC(=O)[C@@H](NC(=O)[C@H](CCCCN)NC(=O)[C@H](C)NC(=O)[C@H](CC(C)C)NC(=O)[C@@H](NC(=O)CNC(=O)[C@@H](N)Cc1ccccc1)C(C)C)C(C)C)C(C)C)C(C)C)C(=O)N[C@@H](C)C(=O)N[C@@H](CCC(=O)O)C(=O)N[C@@H](Cc1cnc[nH]1)C(=O)N[C@@H](Cc1ccccc1)C(N)=O [FGVLAKVAAHVVPAIAEHF]
MIC (Escherichia coli): > 50.6 µM | MIC [15]: ≥ 64 µM | MIC (Streptococcus uberis): ≥ 50.6 µM | MIC (Bacillus cereus): ≥ 50.6 µM | MIC (Leuconostoc lactis): ≥ 50.6 µM | MIC (Micrococcus luteus): ≥ 50.6 µM | MIC [16]: ≥ 64 µM | MIC [17]: ≥ 50.6 µM | MIC (Pasteurella multocida): ≥ 50.6 µM | MIC (Listeria innocua): ≥ 50.6 µM | MIC [18]: ≥ 64 µM | MIC [19]: ≥ 64 µM | MIC (Enterococcus faecalis): ≥ 50.6 µM

Structure (SMILES): CC[C@H](C)[C@H](N=C(O)[C@H](C)N=C(O)[C@H](C)N=C(O)[C@@H](N=C(O)[C@@H](N=C(O)[C@H](Cc1cnc[nH]1)N=C(O)[C@H](C)N=C(O)[C@H](C)N=C(O)[C@@H](N=C(O)[C@H](CCCCN)N=C(O)[C@H](C)N=C(O)[C@H](CC(C)C)N=C(O)[C@@H](N=C(O)CN=C(O)[C@H](Cc1ccccc1)N=C(O)[C@H](CC(C)C)N=C(O)CN)C(C)C)C(C)C)C(C)C)C(C)C)C(O)=N[C@@H](C)C(O)=N[C@@H](CCC(=O)O)C(O)=N[C@@H](Cc1cnc[nH]1)C(O)=N[C@@H](Cc1ccccc1)C(=N)O [GLFGVLAKVAAHVVAAIAEHF]
MIC (Escherichia coli): > 47.2 µM | MIC [15]: ≥ 64 µM | MIC (Staphylococcus aureus): 33.3 µM (≈ 70.7 µg/mL) | MIC (Streptococcus uberis): 23.6 µM (≈ 50 µg/mL) | MIC (Bacillus cereus): ≥ 47.2 µM | MIC (Leuconostoc lactis): 5.66 µM (≈ 12 µg/mL) | MIC (Micrococcus luteus): 23.6 µM (≈ 50 µg/mL) | MIC [16]: 8 µM (≈ 17 µg/mL) | MIC [17]: ≥ 47.2 µM | MIC (Pasteurella multocida): ≥ 47.2 µM | MIC (Listeria innocua): ≥ 47.2 µM | MIC [18]: 4 µM (≈ 8.48 µg/mL) | MIC [19]: ≥ 64 µM | MIC (Enterococcus faecalis): ≥ 47.2 µM

Other lines, results leading:

MIC [1]: 46.2 µM (≈ 128 µg/mL) | MIC [2]: 23.1 µM (≈ 64 µg/mL) | MIC [3]: 46.2 µM (≈ 128 µg/mL) | MIC [4]: 46.2 µM (≈ 128 µg/mL) | MIC [5]: ≥ 370 µM | MIC [6]: 46.2 µM (≈ 128 µg/mL) | MIC [7]: ≥ 92.4 µM | MIC [8]: ≥ 185 µM | MIC [9]: 11.6 µM (≈ 32 µg/mL)
Structure (SMILES): NCCCC[C@H](NC(=O)CNC(=O)[C@H](CCCCN)NC(=O)[C@H](Cc1ccccc1)NC(=O)[C@H](CCCCN)NC(=O)[C@H](Cc1c[nH]c2ccccc12)NC(=O)[C@H](CCCN=C(N)N)NC(=O)[C@H](Cc1ccccc1)NC(=O)[C@H](CCCN=C(N)N)NC(=O)[C@H](CCCN=C(N)N)NC(=O)[C@H](Cc1ccc(O)cc1)NC(=O)[C@H](CCCCN)NC(=O)[C@H](CCCCN)NC(=O)[C@H](CS)NC(=O)CN)C(=O)N[C@@H](Cc1ccccc1)C(=O)N[C@@H](Cc1c[nH]c2ccccc12)C(=O)N[C@@H](Cc1ccccc1)C(=O)N[C@@H](Cc1c[nH]c2ccccc12)C(=O)NCC(=O)NCC(N)=O [GCKKYRRFRWKFKGKFWFWGG]

MIC [10]: 22 µM (≈ 64 µg/mL) | MIC (Streptococcus mutans): 2.74 µM (≈ 8 µg/mL) | MIC [11]: 5.49 µM (≈ 16 µg/mL) | MIC [12]: 22 µM (≈ 64 µg/mL) | MIC [13]: 5.49 µM (≈ 16 µg/mL) | MIC [14]: 2.74 µM (≈ 8 µg/mL)
Structure (SMILES): CC(C)C[C@H](NC(=O)[C@H](Cc1ccccc1)NC(=O)[C@H](CCCN=C(N)N)NC(=O)[C@H](CCCCN)NC(=O)[C@@H](N)CC(C)C)C(=O)N[C@@H](CCCCN)C(=O)N[C@@H](Cc1c[nH]c2ccccc12)C(=O)N[C@@H](Cc1ccccc1)C(=O)N[C@@H](CCCCN)C(=O)N[C@@H](CCCN=C(N)N)C(=O)N[C@@H](Cc1ccccc1)C(=O)NCC(=O)NCC(=O)NCC(=O)N[C@@H](CCCN=C(N)N)C(=O)N[C@@H](Cc1c[nH]c2ccccc12)C(=O)N[C@@H](CCCN=C(N)N)C(=O)N[C@@H](Cc1c[nH]c2ccccc12)C(=O)N[C@@H](CCCN=C(N)N)C(=O)N[C@@H](Cc1c[nH]c2ccccc12)C(=O)N[C@@H](Cc1ccccc1)C(N)=O [LKRFLKWFKRFGGGRWRWRWF]

MIC (Bacillus subtilis): ≥ 37.2 µM | MIC (Candida albicans): > 149 µM | MIC (Escherichia coli): 37.2 µM (≈ 64 µg/mL) | MIC (Staphylococcus aureus): 74.5 µM (≈ 128 µg/mL) | MIC (Streptococcus mutans): ≥ 37.2 µM | MIC (Cryptococcus neoformans): ≥ 74.5 µM | MIC (Salmonella typhimurium): 18.6 µM (≈ 32 µg/mL) | MIC (Streptococcus pneumoniae): ≥ 74.5 µM | MIC (Saccharomyces cerevisiae): ≥ 149 µM | MIC (Serratia marcescens): ≥ 37.2 µM | MIC (Pseudomonas putida): ≥ 37.2 µM
Structure (SMILES): CC(C)C[C@H](NC(=O)[C@H](CC(C)C)NC(=O)[C@H](CCCN=C(N)N)NC(=O)[C@H](Cc1cnc[nH]1)NC(=O)[C@@H](NC(=O)[C@H](CCCN=C(N)N)NC(=O)CNC(=O)[C@@H](NC(=O)[C@@H]1CCCN1C(=O)[C@H](Cc1ccccc1)NC(=O)[C@H](CCC(N)=O)NC(=O)[C@H](CC(C)C)NC(=O)CNC(=O)[C@H](C)NC(=O)[C@@H](N)CCCN=C(N)N)C(C)C)C(C)C)C(=O)O [RAGLQFPVGRVHRLL]
